Experimental findings from patent publication US20100285959A1, “HERBICIDAL MIXTURES” (priority 2006, published 2010) are described below.

The subject of series [1] is Pennsylvania smartweed (POLPY). The series is described as follows: Test 6 field trial, postemergence. Format: in vivo, Polygonum pensylvanicum. The settings on record: 1120 g a.i./ha. The source says: (§1) Corn seeds (hybrid ‘Pioneer 35Y62’) were planted in mid spring season, 3.8 cm deep in a silt loam soil having 4% organic matter and a pH of 5.8. Plots were 10.7 m long by 1.5 m wide with rows spaced 76 cm apart. Seeds were spaced 18 cm apart within the rows. The field was managed using conventional tillage practices. […] All treatments included a surfactant except glufosinate treatments, both alone and in combination. […] Results are summarized in Table 6 and are the means of the three replicates.

A further series relates to corn (ZEAMD). The experiment in a line: Test 6 field trial, postemergence. The settings on record: 1120 g a.i./ha. It counts as in vivo, Zea mays ssp. indentata.
Excerpt: as §1

In series [2] the test system is field pennycress (THLAR). The series is described as follows: Test 5 field trial, postemergence. It counts as in vivo, Thlaspi arvense. The settings on record: atrazine 1120, glufosinate 470 or glyphosate 1120 g a.i./ha alone. The text has this:
Corn seeds (hybrid ‘Pioneer 38H69’) were planted in mid spring season, 5.1 cm deep in a silty clay loam soil having 3% organic matter and a pH of 6.5. Plots were 9.1 m long by 3.0 m wide with rows spaced 76 cm apart. The field was managed using conventional tillage practices. […] All treatments included a surfactant except glufosinate treatments, both alone and in combination. […] Results are summarized in Table 5 and are the means of the three replicates.

For series [3], the system named is ivyleaf morningglory (IPOHE). The experiment in a line: Test 8 field trial, preemergence. It counts as in vivo, Ipomoea hederacea. The settings on record: g a.i./ha: Cpd 2 100, Atrazine 1680, S-Metolachlor 1870. The text has this:
(§2) Corn seeds (hybrid ‘Pioneer 31G96’) were planted in mid spring season, 3.8 cm deep in a clay loam soil having 2% organic matter and a pH of 6.6. Plots were 6.1 m long by 3.0 m wide with rows spaced 76 cm apart. Seeds were spaced 15 cm apart within the rows. The field was managed using conventional tillage practices. […] A few of the weed species could not be evaluated at every timing. […] Results are the means of the three replicates.

Another series deals with redroot pigweed (AMARE). The series is described as follows: Test 1 field trial, preemergence. Format: in vivo, Amaranthus retroflexus. The settings on record: g a.i./ha: Atrazine 1680, S-Metolachlor 1870. The source says:
(§3) Corn seeds (hybrid ‘Pioneer 34N43’) were planted in mid spring season, 3.8 cm deep in a silt loam soil having 4.6% organic matter and a pH of 6. Plots were 10.7 m long by 1.5 m wide with rows spaced 76 cm apart. Seeds were spaced 18 cm apart within the rows. The field was managed using conventional tillage practices. […] Results are summarized in Table 1 and are the means of the three replicates. […] Colby's Equation (Colby, S. R. “Calculating Synergistic and Antagonistic Responses of Herbicide Combinations,” Weeds, 15(1), pp 20-22 (1967)) calculates the expected additive effect of herbicidal mixtures, and for two active ingredients is of the form:
(§4) Pa+b=Pa+Pb−(PaPb/100) • wherein Pa+b is the percentage effect of the mixture expected from additive contribution of the individual components, • Pa is the observed percentage effect of the first active ingredient at the same use rate as in the mixture, and • Pb is the observed percentage effect of the second active ingredient at the same use rate as in the mixture.

Series [4] concerns common ragweed (AMBEL). The series is described as follows: Test 10 field trial, preemergence. Format: in vivo, Ambrosia artemisiifolia. The note with it: 28 DAA; g a.i./ha: Cpd 2 100, Atrazine 1680, S-Metolachlor 1870. The source says:
(§5) Corn seeds (hybrid ‘Pioneer 33P65 RR’) were planted in mid spring season, 2.5 cm deep in a silt loam soil. Plots were 9.1 m long by 3.0 m wide with rows spaced 76 cm apart. The field was managed using conventional tillage practices. […] Results are the means of the three replicates.

Series [5] deals with giant foxtail (SETFA). The series is described as follows: Test 1 field trial, preemergence. It counts as in vivo, Setaria faberi. The note with it: g a.i./ha: Atrazine 1680, S-Metolachlor 1870.
Excerpt: as §3, §4

The subject of series [6] is giant foxtail (SETFA). The series is described as follows: Test 8 field trial, preemergence. The settings on record: g a.i./ha: Cpd 2 100, Atrazine 1680, S-Metolachlor 1870. It counts as in vivo, Setaria faberi.
Excerpt: as §2

The next series deals with velvetleaf (ABUTH). The series is described as follows: Test 1 field trial, preemergence. Also noted: scale not given here. It counts as in vivo, Abutilon theophrasti. The settings on record: g a.i./ha: Atrazine 1680, S-Metolachlor 1870.
Excerpt: as §3, §4

The test system of series [7] is field pennycress (THLAR). The series is described as follows: Test 1 field trial, preemergence. It counts as in vivo, Thlaspi arvense. The settings on record: 28 DAA; g a.i./ha: Atrazine 1680; S-Metolachlor 1870.
Excerpt: as §3, §4

In another series the test system is common cocklebur (XANST). The series is described as follows: Test 10 field trial, preemergence. Format: in vivo, Xanthium strumarium ssp. strumarium. The note with it: 28 DAA; g a.i./ha: Cpd 2 100, Atrazine 1680, S-Metolachlor 1870.
Excerpt: as §5

For series [8], the system named is common ragweed (AMBEL). The experiment in a line: Test 8 field trial, preemergence. Format: in vivo, Ambrosia artemisiifolia. The note with it: g a.i./ha: Cpd 2 100, Atrazine 1680, S-Metolachlor 1870.
Excerpt: as §2

The test system of a further series is Surinam grass (BRADC). The series is described as follows: Test 11 field trial, preemergence. Format: in vivo, Brachiaria decumbens. Also noted: scale not given here. The note with it: alone or + atrazine 1500 or metolachlor 2500. The source says: (§6) Corn seeds (hybrid ‘Pioneer 3041’) were planted in mid spring season, 5 cm deep in a clay soil having 2.6% organic matter and a pH of 5.6. Plots were 8 m long by 1.5 m wide with rows spaced 80 cm apart. Seeds were spaced 15 cm apart within the rows. The field was managed using conventional tillage practices. […] Treatments consisted of Compound 2 or
(§7) Goosegrass was not evaluated 16 or 91 days after application.

The subject of series [9] is tropical spiderwort (COMBE). The series is described as follows: Test 11 field trial, preemergence. Format: in vivo, Commelina benghalensis. Further details: scale not given here. The settings on record: alone or + atrazine 1500 or metolachlor 2500.
Excerpt: as §6, §7

Where [10] appears, read: 16 DAA, Cpd 2/Cpd 1 at 62 g a.i./ha.
Setting [11] is: 16 DAA, Cpd 2/Cpd 1 at 125 g a.i./ha.
Where [12] appears, read: 30 DAA, Cpd 2/Cpd 1 at 62 g a.i./ha.
[13] abbreviates: 30 DAA, Cpd 2/Cpd 1 at 125 g a.i./ha.
[14] abbreviates: 44 DAA, Cpd 2/Cpd 1 at 62 g a.i./ha.
Setting [15] is: 44 DAA, Cpd 2/Cpd 1 at 125 g a.i./ha.
[16] abbreviates: 62 DAA, Cpd 2/Cpd 1 at 62 g a.i./ha.
[17] abbreviates: 62 DAA, Cpd 2/Cpd 1 at 125 g a.i./ha.
The mark [18] stands for this setting: 91 DAA, Cpd 2/Cpd 1 at 62 g a.i./ha.
Where [19] appears, read: 91 DAA, Cpd 2/Cpd 1 at 125 g a.i./ha.

As for `O=C(O)CNCP(=O)(O)O` [Glyphosate], the “POLPY Obs” value in [1] (14 DAA) was 84%; in series [1] (28 DAA), 91%. Also, the “ZEAMD Obs” value with corn (ZEAMD) (14 DAA) and with corn (ZEAMD) (28 DAA) was 0% each time. The figures for the “THLAR Obs” value in the series with field pennycress (THLAR) [2] (16 DAA) and in the series on field pennycress (THLAR) [2] (31 DAA) were 98% and 100%, respectively.
With `CCc1cccc(C)c1N(C(=O)CCl)[C@@H](C)COC` [S-Metolachlor, S-metolachlor, reference compound], the “IPOHE Obs” value in series [3] (19 DAA) was 10%; in series [3] (29 DAA), 25%; in series [3] (56 DAA) it was 3%. In addition, the “AMARE Obs” value with redroot pigweed (AMARE) (28 DAA) is 100; in the series with redroot pigweed (AMARE) (56 DAA) it was 80. Further, the “AMBEL Obs” value was 20% in the series with common ragweed (AMBEL) [4], 32% in the series with common ragweed (AMBEL) [8] (19 DAA), 23% in the series with common ragweed (AMBEL) [8] (29 DAA) and 23% in the series on common ragweed (AMBEL) [8] (56 DAA). For the same compound, the “SETFA Obs” value in the series on giant foxtail (SETFA) [5] (28 DAA) amounted to 57; in the series with giant foxtail (SETFA) [5] (56 DAA) it was 100; in the series with giant foxtail (SETFA) [6] (19 DAA) it was 93%; with giant foxtail (SETFA) [6] (29 DAA) it was 100%; with giant foxtail (SETFA) [6] (56 DAA), 94%. For the same compound, the “ABUTH Obs” value is listed as 33 with velvetleaf (ABUTH) (28 DAA) and 0 in the series on velvetleaf (ABUTH) (56 DAA). Moreover, the “THLAR Obs” value with field pennycress (THLAR) [7] was 58. In the series on common cocklebur (XANST), the “XANST Obs” value is 30%.
Consider `Nc1nc(C2CC2)nc(C(=O)O)c1Cl` [Compound 1, 6-amino-5-chloro-2-cyclopropyl-4-pyrimidinecarboxylic acid], for which the “BRADC Obs” value in the series with Surinam grass (BRADC) (setting [10]) amounted to 20; in the series with Surinam grass (BRADC) (setting [11]), 40; with Surinam grass (BRADC) (setting [12]) it was 20; in the series with Surinam grass (BRADC) (setting [13]), 50; in the series with Surinam grass (BRADC) (setting [14]), 0; in the series on Surinam grass (BRADC) (setting [15]) it was 40. Further, the “BRADC Obs” value in the series on Surinam grass (BRADC) (setting [16]), in the series on Surinam grass (BRADC) (setting [17]), in the series with Surinam grass (BRADC) (setting [18]) and in the series with Surinam grass (BRADC) (setting [19]) was 0 in each case. Further, the “COMBE Obs” value in [9] (setting [10]) is recorded as 40; in series [9] (setting [11]), 60; in series [9] (setting [12]), 60; in series [9] (setting [13]) it was 95; in series [9] (setting [14]), 60; in series [9] (setting [15]) it was 95. Moreover, the “COMBE Obs” value is 40 in [9] (setting [16]), 60 in series [9] (setting [17]), 0 in series [9] (setting [18]) and 70 in series [9] (setting [19]).
